This assay deals with cystic fibrosis transmembrane conductance regulator (CFTR) (Homo sapiens, UniProt P13569). The assay can be described thus: inside-out patch clamp, inhibition of ATP-dependent channel open probability. The format is cell-based. On the technique in general: In patch-clamp work, channel activity is measured electrically.

SMILES strings stand for the structures.

Sequence of cystic fibrosis transmembrane conductance regulator (CFTR) (P13569 whole entry): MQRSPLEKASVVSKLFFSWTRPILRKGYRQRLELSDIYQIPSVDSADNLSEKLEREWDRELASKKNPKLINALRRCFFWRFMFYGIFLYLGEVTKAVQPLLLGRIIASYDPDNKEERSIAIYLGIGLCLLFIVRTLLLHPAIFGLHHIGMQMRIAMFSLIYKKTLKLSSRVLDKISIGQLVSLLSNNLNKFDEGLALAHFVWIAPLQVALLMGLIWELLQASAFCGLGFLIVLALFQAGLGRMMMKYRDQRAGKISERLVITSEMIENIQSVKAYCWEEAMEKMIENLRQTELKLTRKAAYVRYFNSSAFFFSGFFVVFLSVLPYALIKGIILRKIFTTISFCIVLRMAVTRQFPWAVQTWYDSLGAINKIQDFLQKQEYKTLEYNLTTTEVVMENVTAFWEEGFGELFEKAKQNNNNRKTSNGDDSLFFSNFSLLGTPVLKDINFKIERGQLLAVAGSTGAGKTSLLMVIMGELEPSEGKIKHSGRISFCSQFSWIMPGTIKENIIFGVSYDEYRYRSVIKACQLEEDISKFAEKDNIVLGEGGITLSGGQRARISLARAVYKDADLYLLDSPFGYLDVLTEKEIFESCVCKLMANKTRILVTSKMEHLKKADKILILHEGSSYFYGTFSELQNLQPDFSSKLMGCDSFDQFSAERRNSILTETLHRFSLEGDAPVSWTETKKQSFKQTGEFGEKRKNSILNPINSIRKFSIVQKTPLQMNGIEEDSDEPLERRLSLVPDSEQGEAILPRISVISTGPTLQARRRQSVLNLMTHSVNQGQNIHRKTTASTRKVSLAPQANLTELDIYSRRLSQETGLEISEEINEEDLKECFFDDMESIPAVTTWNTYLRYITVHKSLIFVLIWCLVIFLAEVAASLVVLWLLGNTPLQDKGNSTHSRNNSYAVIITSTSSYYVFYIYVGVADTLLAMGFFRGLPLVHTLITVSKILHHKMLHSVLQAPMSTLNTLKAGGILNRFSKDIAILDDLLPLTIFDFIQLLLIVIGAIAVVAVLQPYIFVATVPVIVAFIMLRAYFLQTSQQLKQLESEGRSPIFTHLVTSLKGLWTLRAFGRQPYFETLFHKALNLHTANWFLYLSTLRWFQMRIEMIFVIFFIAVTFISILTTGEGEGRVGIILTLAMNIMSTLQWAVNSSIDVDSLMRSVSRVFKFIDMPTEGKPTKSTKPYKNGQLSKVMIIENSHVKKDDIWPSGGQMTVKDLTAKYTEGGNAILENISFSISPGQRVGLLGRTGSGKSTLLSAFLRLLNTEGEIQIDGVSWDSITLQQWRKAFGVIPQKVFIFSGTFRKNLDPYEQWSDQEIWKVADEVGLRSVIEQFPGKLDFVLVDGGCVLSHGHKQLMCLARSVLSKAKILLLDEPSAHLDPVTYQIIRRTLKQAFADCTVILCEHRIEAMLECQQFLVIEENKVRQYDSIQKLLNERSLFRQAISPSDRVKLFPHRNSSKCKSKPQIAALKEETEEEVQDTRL

Broadly, the Ki is the equilibrium dissociation constant of an inhibitor or competing ligand from its target. Read a high Ki as lower affinity. `Nc1ncnc2c1ncn2[C@@H]1O[C@H](COP(=O)(O)OP(=O)(O)O)[C@@H](O)[C@H]1O` [ADP] displayed a Ki of 16 ± 9 µM.
